# In patent US12077503B2, “Substituted cyclic amides and their use as herbicides” (FMC CORPORATION, priority 2015, dated 2024):
# Assays:
# Assay in all cases: Test C preemergence
# Format in all cases: in vivo
# [1] = tested on: Galium (catchweed bedstraw, Galium aparine); conditions: for Plant response rating, Galium: scale 0 to 100, 0 no effect, 100 complete control
# Method in brief: (§1)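 Seeds in loam-sand soil treated preemergence, or plants in peat-based medium sprayed postemergence at 2–18 cm (1- to 4-leaf stage), with compound in a non-phytotoxic solvent mixture containing surfactant. Greenhouse-held 13–15 d, then visually rated against controls on a 0–100 scale (0 = no effect, 100 = complete control); dash = not tested.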
# [2] = tested on: lambsquarters (Chenopodium album); conditions: for Plant response rating, Lambsquarters: scale 0 to 100, 0 no effect, 100 complete control
# Method in brief: as §1
# soybean (Glycine max) = conditions: for Plant response rating, Soybean: scale 0 to 100, 0 no effect, 100 complete control
# Method in brief: as §1
# corn (Zea mays) = conditions: for Plant response rating, Corn: scale 0 to 100, 0 no effect, 100 complete control
# Method in brief: as §1
# [3] = tested on: barnyardgrass (Echinochloa crus-galli); conditions: for Plant response rating, Barnyardgrass: scale 0 to 100, 0 no effect, 100 complete control
# Method in brief: as §1
# [4] = tested on: wheat (winter wheat, Triticum aestivum); conditions: for Plant response rating, Wheat: scale 0 to 100, 0 no effect, 100 complete control
# Method in brief: as §1
# [5] = tested on: velvetleaf (Abutilon theophrasti); conditions: for Plant response rating, Velvetleaf: scale 0 to 100, 0 no effect, 100 complete control
# Method in brief: as §1
# [6] = tested on: johnsongrass (Sorghum halepense); conditions: for Plant response rating, Johnsongrass: scale 0 to 100, 0 no effect, 100 complete control
# Method in brief: as §1
# [7] = tested on: morningglory (Ipomoea coccinea); conditions: for Plant response rating, Morningglory: scale 0 to 100, 0 no effect, 100 complete control
# Method in brief: as §1
# [8] = tested on: nutsedge, yellow (yellow nutsedge, Cyperus esculentus); conditions: for Plant response rating, Nutsedge, Yellow: scale 0 to 100, 0 no effect, 100 complete control
# Method in brief: as §1
# [9] = tested on: ryegrass, Italian (Italian ryegrass, Lolium multiflorum); conditions: for Plant response rating, Ryegrass, Italian: scale 0 to 100, 0 no effect, 100 complete control
# Method in brief: as §1
# [10] = tested on: crabgrass, large (large crabgrass, Digitaria sanguinalis); conditions: for Plant response rating, Crabgrass, Large: scale 0 to 100, 0 no effect, 100 complete control
# Method in brief: as §1
# [11] = tested on: blackgrass (Alopecurus myosuroides); conditions: for Plant response rating, Blackgrass: scale 0 to 100, 0 no effect, 100 complete control
# Method in brief: as §1
# [12] = tested on: ragweed (common ragweed, Ambrosia elatior); conditions: for Plant response rating, Ragweed: scale 0 to 100, 0 no effect, 100 complete control
# Method in brief: as §1
# [13] = tested on: foxtail, giant (giant foxtail, Setaria faberii); conditions: for Plant response rating, Foxtail, Giant: scale 0 to 100, 0 no effect, 100 complete control
# Method in brief: as §1
# [14] = tested on: waterhemp (common waterhemp, Amaranthus rudis); conditions: for Plant response rating, Waterhemp: scale 0 to 100, 0 no effect, 100 complete control
# Method in brief: as §1
# [15] = tested on: oilseed rape (Brassica napus); conditions: for Plant response rating, Oilseed Rape: scale 0 to 100, 0 no effect, 100 complete control
# Method in brief: as §1
# [16] = 31 g ai/ha, 0 is no effect, 100 is complete control
smiles,measurement,setting,value
CN1CC(c2ccc(F)c(F)c2)C(C(=O)Nc2ccccc2C(F)(F)F)C1=O (centres unmarked) [Compound 641],"Plant response rating (scale of 0 to 100), Galium",[1]; [16],0
same,"Plant response rating, Galium",[1]; 62 g ai/ha,30
same,"Plant response rating, Galium",[1]; 125 g ai/ha,90
same,"Plant response rating, Galium",[1]; 250 g ai/ha,85
same,"Plant response rating (scale of 0 to 100), Lambsquarters",[2]; [16],0
same,"Plant response rating, Lambsquarters",[2]; 62 g ai/ha,40
same,"Plant response rating, Lambsquarters",[2]; 125 g ai/ha,40
same,"Plant response rating, Lambsquarters",[2]; 250 g ai/ha,65
same,"Plant response rating (scale of 0 to 100), Soybean",soybean (Glycine max); [16],0
same,"Plant response rating, Soybean",soybean (Glycine max); 62 g ai/ha,0
same,"Plant response rating, Soybean",soybean (Glycine max); 125 g ai/ha,10
same,"Plant response rating, Soybean",soybean (Glycine max); 250 g ai/ha,100
same,"Plant response rating (scale of 0 to 100), Corn",corn (Zea mays); [16],0
same,"Plant response rating, Corn",corn (Zea mays); 62 g ai/ha,0
same,"Plant response rating, Corn",corn (Zea mays); 125 g ai/ha,0
same,"Plant response rating, Corn",corn (Zea mays); 250 g ai/ha,10
same,"Plant response rating (scale of 0 to 100), Barnyardgrass",[3]; [16],85
same,"Plant response rating, Barnyardgrass",[3]; 62 g ai/ha,90
same,"Plant response rating, Barnyardgrass",[3]; 125 g ai/ha,90
same,"Plant response rating, Barnyardgrass",[3]; 250 g ai/ha,95
same,"Plant response rating (scale of 0 to 100), Wheat",[4]; [16],5
same,"Plant response rating, Wheat",[4]; 62 g ai/ha,0
same,"Plant response rating, Wheat",[4]; 125 g ai/ha,35
same,"Plant response rating, Wheat",[4]; 250 g ai/ha,70
same,"Plant response rating (scale of 0 to 100), Velvetleaf",[5]; [16],0
same,"Plant response rating, Velvetleaf",[5]; 62 g ai/ha,35
same,"Plant response rating, Velvetleaf",[5]; 125 g ai/ha,25
same,"Plant response rating, Velvetleaf",[5]; 250 g ai/ha,45
same,"Plant response rating (scale of 0 to 100), Johnsongrass",[6]; [16],0
same,"Plant response rating, Johnsongrass",[6]; 62 g ai/ha,0
same,"Plant response rating, Johnsongrass",[6]; 125 g ai/ha,10
same,"Plant response rating, Johnsongrass",[6]; 250 g ai/ha,60
same,"Plant response rating (scale of 0 to 100), Morningglory",[7]; [16],0
same,"Plant response rating, Morningglory",[7]; 62 g ai/ha,0
same,"Plant response rating, Morningglory",[7]; 125 g ai/ha,0
same,"Plant response rating, Morningglory",[7]; 250 g ai/ha,0
same,"Plant response rating (scale of 0 to 100), Nutsedge, Yellow",[8]; [16],0
same,"Plant response rating, Nutsedge, Yellow",[8]; 62 g ai/ha,0
same,"Plant response rating, Nutsedge, Yellow",[8]; 125 g ai/ha,0
same,"Plant response rating, Nutsedge, Yellow",[8]; 250 g ai/ha,0
same,"Plant response rating (scale of 0 to 100), Ryegrass, Italian",[9]; [16],0
same,"Plant response rating, Ryegrass, Italian",[9]; 62 g ai/ha,10
same,"Plant response rating, Ryegrass, Italian",[9]; 125 g ai/ha,35
same,"Plant response rating, Ryegrass, Italian",[9]; 250 g ai/ha,70
same,"Plant response rating (scale of 0 to 100), Crabgrass, Large",[10]; [16],98
same,"Plant response rating, Crabgrass, Large",[10]; 62 g ai/ha,100
same,"Plant response rating, Crabgrass, Large",[10]; 125 g ai/ha,100
same,"Plant response rating, Crabgrass, Large",[10]; 250 g ai/ha,100
same,"Plant response rating (scale of 0 to 100), Blackgrass",[11]; [16],0
same,"Plant response rating, Blackgrass",[11]; 62 g ai/ha,45
same,"Plant response rating, Blackgrass",[11]; 125 g ai/ha,30
same,"Plant response rating, Blackgrass",[11]; 250 g ai/ha,70
same,"Plant response rating (scale of 0 to 100), Ragweed",[12]; [16],0
same,"Plant response rating, Ragweed",[12]; 62 g ai/ha,25
same,"Plant response rating, Ragweed",[12]; 125 g ai/ha,30
same,"Plant response rating, Ragweed",[12]; 250 g ai/ha,45
same,"Plant response rating (scale of 0 to 100), Foxtail, Giant",[13]; [16],90
same,"Plant response rating, Foxtail, Giant",[13]; 62 g ai/ha,90
same,"Plant response rating, Foxtail, Giant",[13]; 125 g ai/ha,90
same,"Plant response rating, Foxtail, Giant",[13]; 250 g ai/ha,95
same,"Plant response rating (scale of 0 to 100), Waterhemp",[14]; [16],0
same,"Plant response rating, Waterhemp",[14]; 62 g ai/ha,0
same,"Plant response rating, Waterhemp",[14]; 125 g ai/ha,45
same,"Plant response rating, Waterhemp",[14]; 250 g ai/ha,70
same,"Plant response rating (scale of 0 to 100), Oilseed Rape",[15]; [16],80
same,"Plant response rating, Oilseed Rape",[15]; 62 g ai/ha,85
same,"Plant response rating, Oilseed Rape",[15]; 125 g ai/ha,85
same,"Plant response rating, Oilseed Rape",[15]; 250 g ai/ha,90
